Test results from US20250340529A1, “Heterocyclic Compounds as Immunomodulators of PD-L1 Interactions” (Ascletis BioScience Co., Ltd, priority 2021, published 2025).

Columns and labels:
PD-1/PD-L1 = PD-1/PD-L1 (Homo sapiens (Human), UniProt Q9NZQ7); assay: PD-1/PD-L1 Homogeneous Time-Resolved Fluorescence (HTRF) binding assay; conditions: 3 nM PD1, 10 nM PD-L1, 25° C., PBS pH 7.4
Experimental: PD-1/PD-L1 Homogeneous Time-Resolved Fluorescence (HTRF) Binding Assay
The assays were conducted in a standard black 384-well polystyrene plate with a final volume of 20 μL. Inhibitors were first serially diluted in DMSO and then added to the plate wells before the addition of other reaction components. The final concentration of DMSO in the assay was 1%. The assays were carried out at 25° C. in the PBS buffer (pH 7.4) with 0.05% Tween-20 and 0.1% BSA. Recombinant human PD-L1 protein (19-238) with a Histag at the C-terminus was purchased from AcroBiosystems (PD1-H5229). Recombinant human PD-1 protein (25-167) with Fe tag at the C-terminus was also purchased from AcroBiosystems (PD1-H5257). PD-L1 and PD-1 proteins were diluted in the assay buffer and 10 μL was added to the plate well. Plates were centrifuged and proteins were preincubated with inhibitors for 40 minutes. The incubation was followed by the addition of 10 μL of HTRF detection buffer supplemented with Europium cryptate-labeled anti-human IgG (PerkinElmer-AD0212) specific for Fe and anti-His antibody conjugated to SureLight®-Allophycocyanin (APC, PerkinElmer-AD0059H). After centrifugation, the plate was incubated at 25° C. for 60 min. before reading on a PHERAstar FS plate reader (665 nm/620 nm ratio). Final concentrations in the assay were—3 nM PD1, 10 nM PD-L1, 1 nM europium anti-human IgG and 20 nM anti-His-Allophycocyanin. IC50 determination was performed by fitting the curve of percent control activity versus the log of the inhibitor concentration.

PD-L1/CHO-K1 cells = PD-L1/CHO-K1 cells (Homo sapiens (Human), UniProt Q9NZQ7); assay: PD-L1 internalization (FACS, PD-L1/CHO-K1 cells); type: cell-based; conditions: % activation of PD-L1 internalization = 1 − PD-L1 signal; 17 hours incubation
Sequence of PD-L1/CHO-K1 cells (Q9NZQ7 19-290): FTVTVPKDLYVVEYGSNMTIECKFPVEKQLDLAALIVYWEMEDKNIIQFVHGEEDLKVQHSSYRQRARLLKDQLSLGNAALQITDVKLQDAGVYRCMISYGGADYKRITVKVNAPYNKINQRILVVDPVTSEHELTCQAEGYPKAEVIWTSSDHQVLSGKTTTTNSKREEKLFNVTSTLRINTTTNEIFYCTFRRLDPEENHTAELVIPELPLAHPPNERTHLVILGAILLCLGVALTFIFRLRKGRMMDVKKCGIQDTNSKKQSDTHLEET
Experimental: Day 1. Seeding cells: Digest the PD-L1/CHO-K1 cells by trypsin in the flask, then counting the cell number and diluted to 1×10^5 cells/ml. Seeding cells to 6 well plate (Corning, #3516), 2 mL/well. The plates were incubated at 37° C., […] incubator for 24 hours.
Day 2. Preparing compounds and treated cells: Dilute GLC01-258 from 15 mM to 0.5 mM by using DMSO, and 15 mM compound were serial diluted from 15 mM˜15 nM by DMSO, Then 500 times dilute the compounds by using assay buffer. Prepare 0.2% DMSO in assay buffer used for Vehicle control and low control. Take out the plates, aspirated the medium and thrown away. Adding 2 mL of the diluted compounds, vehicle control and low control to corresponding wells. Then incubated the plates for 17 hours at 37° C., 5% CO2 incubator.
Day 3. Preparing samples for FACS: After 17 hours incubation, discarded medium and washed by the PBS. Cells in each well were Digested by trypsin. Centrifuge and discard the supernatant, then wash the cells by DPBS (Ca^2+, Mg^2+ free) for twice. 10 fold dilute the antibody (PE-conjugated mouse anti-human CD274) by DPBS, then adding the staining solution to compounds treated samples and vehicle control sample. The low control only add DPBS without antibody. Incubate the plates at room temperature for 20 minutes and protect from light. After 20 minutes, wash the samples by DPBS for twice. Then centrifuge and discard the supernatant. Resuspend cells by 300 uL DPBS and transfer the samples to 5 mL Polystryrene Round-Bottom Tube (Falcon, #352054), then tested by BD FACSCanto. […].
Set the PD-L1 signal of vehicle control as 100%, PD-L1 signal of Low control as 0%. Then calculate the compound treated samples' PD-L1 signal
0% PD-L1 signal: Low control which stained without anti-CD274
100% PD-L1 Signal: vehicle control which stained with anti-CD274
The % activation of PD-L1 Internalization=1−PD-L1 signal of compound.

Sequence of PD-1/PD-L1 (Q9NZQ7 19-238): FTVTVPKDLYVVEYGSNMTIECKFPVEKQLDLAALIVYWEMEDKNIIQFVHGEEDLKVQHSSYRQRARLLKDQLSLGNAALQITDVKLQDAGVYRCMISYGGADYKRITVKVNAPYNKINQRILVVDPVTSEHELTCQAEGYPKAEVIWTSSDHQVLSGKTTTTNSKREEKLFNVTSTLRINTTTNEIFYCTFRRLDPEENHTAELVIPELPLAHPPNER

SMILES | IC50 (PD-1/PD-L1) | Internalization (PD-L1/CHO-K1 cells)
O=C1COc2cc(-c3cccc(-c4cccc(-c5ccc6c(c5)OCC(=O)N6CCNCCO)c4Cl)c3Cl)ccc2N1CCNCCO [Compound 445] | 5.01 nM | 20.50%
O=C(O)CCNCCCN1C(=O)COc2cc(-c3cccc(-c4cccc(-c5ccc6c(c5)OCC(=O)N6CCCNCCC(=O)O)c4Cl)c3Cl)ccc21 [Compound 480] | 5.48 nM | 5.70%
O=C1COc2cc(-c3cccc(-c4cccc(-c5ccc6c(c5)OCC(=O)N6CCN5CC[C@H](O)C5)c4Cl)c3Cl)ccc2N1CCN1CC[C@H](O)C1 [Compound 476] | 5.22 nM | 6.10%
O=C1COc2cc(-c3cccc(-c4cccc(-c5ccc6c(c5)OCC(=O)N6C[C@H]5NC6CCC5C6)c4Cl)c3Cl)ccc2N1C[C@H]1NC2CCC1C2 [Compound 539] | 7.73 nM | 11.60%
O=C(O)[C@H](CO)NCCN1C(=O)COc2cc(-c3cccc(-c4cccc(-c5ccc6c(c5)OCC(=O)N6CCN[C@@H](CO)C(=O)O)c4F)c3F)ccc21 [Compound 613, (2S,2'S)-2,2′-((((2,2′-difluoro-[1,1′-biphenyl]-3,3′-diyl)bis(3-oxo-2,3-dihydro-4H-benzo[b][1,4]oxazine-7,4-diyl))bis(ethane-2,1-diyl))bis(azanediyl))bis(3-hydroxypropanoic acid)] | – | 4.80%
O=C(O)[C@@H](O)CNCCN1C(=O)COc2cc(-c3cccc(-c4cccc(-c5ccc6c(c5)OCC(=O)N6CCNC[C@H](O)C(=O)O)c4Cl)c3Cl)ccc21 [Compound 553] | – | 9.40%
Cl.O=C1CC[C@@H](CN2C(=O)COc3cc(-c4cccc(-c5cccc(-c6ccc7c(c6)OCC(=O)N7C[C@@H]6CCCN6)c5Cl)c4Cl)ccc32)N1 [Compound 517] | 7.46 nM | 22.80%
O=C(O)[C@H](CO)NCCN1C(=O)COc2c1ccc(-c1cccc(-c3cccc(-c4ccc5c(c4F)OCC(=O)N5CCN[C@@H](CO)C(=O)O)c3Cl)c1Cl)c2F [Compound 557] | 5.33 nM | 20.30%
O=C1CC[C@@H](CN2C(=O)COc3c2ccc(-c2cccc(-c4cccc(-c5ccc6c(c5F)OCC(=O)N6C[C@@H]5CCC(=O)N5)c4Cl)c2Cl)c3F)N1 [Compound 395] | 6.26 nM | 2.50%
CN(CCN1C(=O)COc2cc(-c3cccc(-c4cccc(-c5ccc6c(c5)OCC(=O)N6CCN(C)C[C@@H]5CCC(=O)N5)c4Cl)c3Cl)ccc21)C[C@@H]1CCC(=O)N1 [Compound 460] | 9.9 nM | 1.90%
O=C1COc2cc(-c3cccc(-c4cccc(-c5ccc6c(c5)OCC(=O)N6CCN[C@@H](CO)C(=O)O)c4Cl)c3Cl)ccc2N1 [Compound 542] | 5.24 nM | 3.30%
O=C(O)[C@@H](CO)NCCN1C(=O)COc2cc(-c3cccc(-c4cccc(-c5ccc6c(c5)OCC(=O)N6CCN[C@H](CO)C(=O)O)c4Cl)c3Cl)ccc21 [Compound 483] | 6.31 nM | 19.80%
NCCN1C(=O)COc2cc(-c3cccc(-c4cccc(-c5ccc6c(c5)OCC(=O)N6CCN)c4Cl)c3Cl)ccc21 [Compound 538] | 8.18 nM | 3.60%
O=C(O)[C@H](CCO)NCCN1C(=O)COc2cc(-c3cccc(-c4cccc(-c5ccc6c(c5)OCC(=O)N6CCN[C@@H](CCO)C(=O)O)c4Cl)c3Cl)ccc21 [Compound 560] | 7.78 nM | 3.10%
O=C1COc2cc(-c3cccc(-c4cccc(-c5ccc6c(c5)OCC(=O)N6C[C@@H]5COCCN5)c4Cl)c3Cl)ccc2N1C[C@@H]1CCCCN1 [Compound 559] | 8.98 nM | –
O=C1CC[C@@H](CN2C(=O)COc3nc(-c4cccc(-c5cccc(-c6ccc7c(n6)OCC(=O)N7C[C@@H]6CCC(=O)N6)c5Cl)c4Cl)ccc32)N1 [Compound 457] | 8.78 nM | –
O=C(O)[C@H]1C[C@@H](O)CN1CCN1C(=O)COc2cc(-c3cccc(-c4cccc(-c5ccc6c(c5)OCC(=O)N6CCN5C[C@H](O)C[C@@H]5C(=O)O)c4Cl)c3Cl)ccc21 [Compound 484] | 6.53 nM | –
O=C1N[C@@H](CN2C(=O)COc3cc(-c4cccc(-c5cccc(-c6ccc7c(c6)OCC(=O)N7C[C@H]6COC(=O)N6)c5Cl)c4Cl)ccc32)CO1 [Compound 413] | 7.05 nM | –
O=C1COc2cc(-c3cccc(-c4cccc(-c5ccc6c(c5)OCC(=O)N6CCn5cccn5)c4Cl)c3Cl)ccc2N1CCn1cccn1 [Compound 375] | 2710 nM | –
CC(C)[C@H](N)C(=O)N1CCC[C@H]1CN1C(=O)COc2cc(-c3cccc(-c4cccc(-c5ccc6c(c5)OCC(=O)N6C[C@@H]5CCCN5C(=O)[C@@H](N)C(C)C)c4Cl)c3Cl)ccc21 [Compound 459] | 436 nM | –
N#Cc1cncc(CCN2C(=O)COc3cc(-c4cccc(-c5cccc(-c6ccc7c(c6)OCC(=O)N7CCc6cncc(C#N)c6)c5Cl)c4Cl)ccc32)c1 [Compound 427] | 68.7 nM | –

Next, values leading:

IC50 (PD-1/PD-L1) | Internalization (PD-L1/CHO-K1 cells) | SMILES
3.89 nM | 12.20% | O=C1CC[C@@H](CNCCN2C(=O)COc3cc(-c4cccc(-c5cccc(-c6ccc7c(c6)OCC(=O)N7CCNC[C@@H]6CCC(=O)N6)c5Cl)c4Cl)ccc32)N1 [Compound 449]
2.16 nM | 5.50% | O=C1CC[C@@H](CN2C(=O)CNc3cc(-c4cccc(-c5cccc(-c6ccc7c(c6)NCC(=O)N7C[C@@H]6CCC(=O)N6)c5Cl)c4Cl)ccc32)N1 [Compound 363]
3.23 nM | 31.50% | CC(CO)(NCCN1C(=O)COc2cc(-c3cccc(-c4cccc(-c5ccc6c(c5)OCC(=O)N6CCNC(C)(CO)C(=O)O)c4Cl)c3Cl)ccc21)C(=O)O (stereo not drawn) [Compound 475]
4.19 nM | 3.50% | O=C1COc2cc(-c3cccc(-c4cccc(-c5ccc6c(c5)OCC(=O)N6C[C@@H]5CCNC5)c4Cl)c3Cl)ccc2N1C[C@@H]1CCNC1 [Compound 503]
4.31 nM | 7.90% | C[C@H](NCCN1C(=O)COc2cc(-c3cccc(-c4cccc(-c5ccc6c(c5)OCC(=O)N6CCN[C@@H](C)C(=O)O)c4Cl)c3Cl)ccc21)C(=O)O [Compound 536]
4.69 nM | 8.70% | O=C(O)C1CCN(CCN2C(=O)COc3cc(-c4cccc(-c5cccc(-c6ccc7c(c6)OCC(=O)N7CCN6CC[C@H](O)C6)c5Cl)c4Cl)ccc32)C1 (stereo partly drawn) [Compound 481, 1-(2-(7-(2,2′-dichloro-3′-(4-(2-((S)-3-hydroxypyrrolidin-1-yl)ethyl)-3-oxo-3,4-dihydro-2H-benzo[b][1,4]oxazin-7-yl)-[1,1′-biphenyl]-3-yl)-3-oxo-2,3-dihydro-4H-benzo[b][1,4]oxazin-4-yl)ethyl)pyrrolidine-3-carboxylic acid]
1.98 nM | 2.40% | CN1CC(=O)N(C[C@@H]2CCC(=O)N2)c2ccc(-c3cccc(-c4cccc(-c5ccc6c(c5)N(C)CC(=O)N6C[C@@H]5CCC(=O)N5)c4Cl)c3Cl)cc21 [Compound 402]
1.1 nM | 6.10% | O=C1CC[C@@H](CN2C(=O)COc3cc(-c4cccc(-c5cccc(-c6cc7c(cc6F)N(C[C@@H]6CCC(=O)N6)C(=O)CO7)c5Cl)c4Cl)c(F)cc32)N1 [Compound 388]
3.15 nM | – | O=C1CC[C@@H](CN2C(=O)COc3cc(-c4cccc(-c5cccc(-c6ccc7c(c6)OCC(=O)N7CCN6CC[C@H](O)C6)c5Cl)c4Cl)ccc32)N1 [Compound 492]
4.46 nM | – | Cc1c(-c2ccc3c(c2)OCC(=O)N3CCN2C[C@H](O)C[C@H]2C(=O)O)cccc1-c1cccc(-c2ccc3c(c2)OCC(=O)N3CCN2C[C@H](O)C[C@H]2C(=O)O)c1C [Compound 514]
